Measurements reported in patent US12246089B2, “Method for treatment of a viral-mediated infectious disease” (Virothera Pharmaceuticals LLC, priority 2020, dated 2025).
Like-named read-outs stand apart in the source and are kept apart here.

How the values were obtained:
[1] = system: COVID-19; conditions: cited from earlier work
[2] = system: SARS-CoV-2; conditions: in vitro; cited from earlier work
[3] = system: SARS-CoV; conditions: by interfering with glycosylation of ACE2; cited from earlier work
[4] = Encapsulation efficiency and loading capacity of niclosamide by HPLC; conditions: niclosamide in niclosamide, HPLC 333-346 nm
[5] = system: severe coronavirus disease 2019 patients with coagulopathy; conditions: cited from earlier work
[6] = system: viruses including COVID-19 viruses; conditions: cited from earlier work
[7] = system: patients with COPD; conditions: cited from earlier work
[8] = biological target: SARS-CoV-2 spike glycoprotein (SGP) (Severe acute respiratory syndrome coronavirus 2, UniProt P0DTC2); conditions: cited from earlier work
[9] = system: inhalation injury (IHI); conditions: nebulized; cited from earlier work
[10] = cited from earlier work

For CCN(CCO)CCCC(C)Nc1ccnc2cc(Cl)ccc12 (stereo not drawn) [hydroxychloroquine], the “clinical benefit of combination with azithromycin” value ([1]; 11 patients with severe COVID-19) is given as “no evidence of clinical benefit”, the “effectiveness in COVID-19-associated pneumonia” value ([1]; several clinical trials in China) is given as “to various degree effective” and the “clinical effect in combination with azithromycin” value ([1]; small open-label non-randomized clinical trial from France) is given as “positive effect”. For the same molecule, the “viral copy number of SARS-CoV-2” value [2] was “effectively reduce the viral copy number” and the “replication of SARS-CoV” value [3] was “specifically inhibit the replication of SARS-CoV”.

Molecule O=C(Nc1ccc([N+](=O)[O-])cc1Cl)c1cc(Cl)ccc1O [niclosamide] has an encapsulation efficiency [4] of 90% and a loading capacity [4] of 10.0%.

For heparin, the mortality ([5]; patients meeting sepsis induced coagulopathy (SIC) criteria ≥4, heparin therapy (vs 64.2%, P=0.029)) is listed as 40.0%, the mortality ([5]; patients with SIC score <4, heparin therapy (vs 22.6%, P=0.419)) is listed as 29.0% and the “binding affinity to viruses” value [6] is listed as “nanomolar to sub-nanomolar”. For the same molecule, the lung function ([7]; inhaled, 21 days of treatment, COPD patients receiving pulmonary rehabilitation) was “significantly improves lung function”, the “safety of inhaled nebulized UFH” value ([7]; patients with moderate to very severe COPD) was “safe” and the SGP binding affinity [8] was “high sub-nanomolar affinity”. The “lung function and mortality in IHI” value [9] was “promotes improvement in lung function and decreased mortality” and the plasma protein binding [10] was “high plasma protein binding”.
